Where a name gives a salt, the structure may show the parent alone.
Legend:
[1] = Water absorption of Form I at room temperature for 7 days under various relative humidity conditions; assay type: physicochemical
Protocol: Copper radiation of 1.5418 Å was used. A round aluminum sample holder with zero background was used. All peak positions are within ±0.2 degrees two theta. Karl Fisher analysis was performed according to the known art.

[2] = Transformations by heat (XRD and Karl Fisher after heating); assay type: physicochemical
Protocol: (§1) X-Ray powder diffraction data were obtained using a SCINTAG powder X-Ray diffractometer model X'TRA equipped with a solid state detector. Copper radiation of 1.5418 Å was used. A round aluminum sample holder with zero background was used. All peak positions are within ±0.2 degrees two theta.
(§2) Karl Fisher analysis was performed according to the known art.

[3] = Water absorption of Form IX after exposure for 10 days to 100% relative humidity at room temperature; assay type: physicochemical
Protocol: The present invention provides non-hygroscopic crystalline form of ziprasidone mesylate Form IX. Form IX was tested for water absorption after exposure for 10 days to 100% relative humidity at room temperature, as summarized in the following table:
as §2
Ziprasidone mesylate Form IX was exposed to 100% humidity at room temperature for 10 days. Before the exposure the water content was measured to be about 4.8%, while after the exposure the water content was measure to be about 5.0% water. The difference between water content before and after the exposure to 100% humidity is 0.2%.

[4] = Water absorption of Form XVIII, 7 days at 30° C. under humidity; assay type: physicochemical
Protocol: as §1, §2

[5] = aqueous medium at ambient temperature; cited from earlier work
[6] = 60% RH, room temperature, 7 days
[7] = 80% RH, room temperature, 7 days
[8] = 100% RH, room temperature, 7 days
[9] = 100% humidity at room temperature for 10 days
[10] = heated at TEMP. 90, 30 min, mesylate dihydrate
[11] = heated at TEMP. 120, 30 min, mesylate dihydrate

Compound: O=C1Cc2cc(CCN3CCN(c4nsc5ccccc45)CC3)c(Cl)cc2N1 [Form I, ziprasidone mesylate]
- crystal form (by XRD) [1, 6]: Form I
- water content (by Karl Fisher) [1, 6]: 2.5%
- crystal form (by XRD) [1, 7]: Form I
- water content (by Karl Fisher) [1, 7]: 3.1%
- crystal form (by XRD) [1, 8]: Form I
- water content (by Karl Fisher) [1, 8]: 4.6%
- crystal form (by XRD) ([1]; Initial): Form I
- water content (by Karl Fisher) ([1]; Initial): 2.3%
- stability when tested for water absorption ([1]; room temperature, 7 days, various relative humidity conditions): stable

Compound: O=C1Cc2cc(CCN3CCN(c4nsc5ccccc45)CC3)c(Cl)cc2N1 [Form II, ziprasidone mesylate]
- RESULT (XRD) ([2]; heated at TEMP. 90, 30 min): Form II

Compound: O=C1Cc2cc(CCN3CCN(c4nsc5ccccc45)CC3)c(Cl)cc2N1 [Form IX, ziprasidone mesylate]
- water content (by Karl Fisher) ([3]; 100% RH at RT, 10 days): 5%
- difference between water content before and after the exposure [3, 9]: 0.2%
- water content after the exposure [3, 9]: about 5.0%
- water content (by Karl Fisher) ([3]; Initial): 4.7%
- water content before the exposure ([3]; before exposure to 100% humidity): about 4.8%
- hygroscopicity ([3]; non-hygroscopic = does not absorb more than 0.2% of water at 80% humidity, 25° C., 24 hours): non-hygroscopic

Compound: O=C1Cc2cc(CCN3CCN(c4nsc5ccccc45)CC3)c(Cl)cc2N1 [Form XVIII, ziprasidone mesylate]
- Water content (by KF) ([4]; 80% RH, 7 days at 30° C.): 8.2%
- crystal form (by XRD) ([4]; 80% RH, 7 days at 30° C.): Trihydrate
- crystal form (by XRD) ([4]; 80% RH, 7 days at 30° C., listed as form XVIII): transformation to trihydrate
- water content determined by Karl Fisher ([4]; 80% humidity for 7 days at 30° C.): about 8.2%
- Water content (by KF) ([4]; 100% RH, 7 days at 30° C.): 9.1%
- crystal form (by XRD) ([4]; 100% RH, 7 days at 30° C.): Trihydrate
- Water content (by KF) ([4]; Initial): 2%
- crystal form (by XRD) ([4]; Initial): XVIII

Compound: ziprasidone mesylate dihydrate [Dihydrate Lath]
- K.F. [2, 10]: 3.1%
- RESULT (XRD) [2, 10]: Dihydrate Lath
- K.F. [2, 11]: 0.4%
- RESULT (XRD) [2, 11]: Dihydrate Lath
- K.F. ([2]; heated at TEMP. 140, 30 min): 0.3%
- RESULT (XRD) ([2]; heated at TEMP. 140, 30 min): Dihydrate Lath
- K.F. ([2]; heated at TEMP. 160, 30 min): 0.2%
- RESULT (XRD) ([2]; heated at TEMP. 160, 30 min, listed as Dihydrate lath, mesylate dihydrate): Transformation from dihydrate lath to Form VI
- RESULT (XRD) ([2]; heated at TEMP. 160, 30 min, mesylate dihydrate): Form VI
- K.F. ([2]; t = 0 (before heating)): (t = 0 6.5%)

Compound: ziprasidone mesylate dihydrate [Dihydrate needle]
- K.F. [2, 10]: 3%
- RESULT (XRD) [2, 10]: Dihydrate needle
- K.F. [2, 11]: 0.5%
- RESULT (XRD) [2, 11]: Dihydrate needle

Compound: ziprasidone mesylate trihydrate
- thermodynamic stability among the four crystalline forms of ziprasidone mesylate [5]: most thermodynamically stable form

From US20060270684A1, “Crystalline forms of ziprasidone mesylate” (priority 2005, published 2006)
